According to ChEMBL document CHEMBL4257228, “Glucagon-like-peptide-2 (glp-2) analogues” (2016):
Active and inactive are the calls of the source. The calls are words filed in the database; no cut-off is given here. Non-standard residues stand in square brackets, D forms with d. Residues, ends and D or L forms follow the SMILES beside them. Aib = CC(C)(N)C(=O)O

Key:
Mus musculus [1] = assay: Antidiabetic activity in C57BL/6J mouse assessed as reduction in blood glucose level at 1000 nmol/kg, sc administered as single dose 1 hr prior to glucose challenge measured up to 120 mins post glucose challenge by OGTT; assay type: functional, organism-based
[2] = target: T1, Glucagon-like peptide 2 receptor (Homo sapiens, UniProt O95838); assay: Agonist activity at human GLP2 receptor expressed in HEK293 cells assessed as increase in intracellular cAMP accumulation by AlphaScreen assay; assay type: functional, cell-based
T1 sequence (O95838 whole entry): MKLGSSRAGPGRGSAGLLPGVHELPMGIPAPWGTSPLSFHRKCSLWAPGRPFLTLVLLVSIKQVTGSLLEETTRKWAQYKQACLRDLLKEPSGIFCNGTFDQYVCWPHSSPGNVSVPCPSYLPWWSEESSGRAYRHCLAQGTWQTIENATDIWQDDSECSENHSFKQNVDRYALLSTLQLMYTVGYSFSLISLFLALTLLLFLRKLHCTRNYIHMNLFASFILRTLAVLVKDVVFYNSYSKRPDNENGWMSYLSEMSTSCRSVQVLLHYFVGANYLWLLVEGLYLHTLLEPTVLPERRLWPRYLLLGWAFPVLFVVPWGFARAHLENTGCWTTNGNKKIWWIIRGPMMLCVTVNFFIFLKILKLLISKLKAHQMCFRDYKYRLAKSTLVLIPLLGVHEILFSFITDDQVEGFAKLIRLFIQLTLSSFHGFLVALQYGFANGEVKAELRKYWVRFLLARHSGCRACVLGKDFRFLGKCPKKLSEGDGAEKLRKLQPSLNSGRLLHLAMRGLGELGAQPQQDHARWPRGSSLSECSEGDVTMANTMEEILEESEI

Mus musculus [3] = assay: In vivo agonist activity at GLP2R in diet-induced obese C57BL/6J mouse assessed as increase in large intestinal wet weight at 250 to 500 nmol/kg, sc bid for 14 days; assay type: functional, organism-based
Mus musculus [4] = assay: Antidiabetic activity in diet-induced obese C57BL/6J mouse assessed as decrease in plasma insulin level at 250 to 500 nmol/kg, sc bid for 14 days fasted overnight on day 11 to 12 and measured on day 14; assay type: functional, organism-based
Mus musculus [5] = assay: Antidiabetic activity in diet-induced obese C57BL/6J mouse assessed as decrease in fasting blood glucose level at 250 to 500 nmol/kg, sc bid for 14 days fasted overnight on day 11 to 12 and measured on day 14; assay type: functional, organism-based
Rattus norvegicus = assay: In vivo agonist activity at GLP2R in Wistar rat assessed as increase in small intestinal wet weight administered sc once daily for 4 days measured on day 5; assay type: functional, organism-based
Mus musculus [6] = assay: Antidiabetic activity in diet-induced obese C57BL/6J mouse assessed as decrease in insulin resistance by measuring lower HOMA-IR index at 250 to 500 nmol/kg, sc bid for 14 days fasted overnight on day 11 to 12 and measured on day 14; assay type: functional, organism-based
Mus musculus [7] = assay: In vivo agonist activity at GLP2R in diet-induced obese C57BL/6J mouse assessed as increase in small intestinal wet weight at 250 to 500 nmol/kg, sc bid for 14 days; assay type: functional, organism-based

With H-HGDGSFSDEMNTILDGQAARDFINWLIQTK-NH2 the Activity (Mus musculus [1]) was “Active”.

CC[C@H](C)[C@H](NC(=O)[C@H](Cc1ccccc1)NC(=O)[C@H](CC(=O)O)NC(=O)[C@H](CCCNC(=N)N)NC(=O)[C@H](C)NC(=O)[C@H](C)NC(=O)[C@H](CCC(N)=O)NC(=O)[C@H](CC(N)=O)NC(=O)[C@H](CC(=O)O)NC(=O)[C@H](CC(C)C)NC(=O)[C@@H](NC(=O)[C@@H](NC(=O)[C@H](CC(N)=O)NC(=O)[C@H](CCSC)NC(=O)[C@H](CCC(=O)O)NC(=O)[C@H](CC(=O)O)NC(=O)[C@H](CO)NC(=O)[C@H](Cc1ccccc1)NC(=O)[C@H](CO)NC(=O)CNC(=O)[C@H](CC(=O)O)NC(=O)C(C)(C)N)[C@@H](C)O)[C@@H](C)CC)C(=O)N[C@@H](CC(N)=O)C(=O)N[C@@H](Cc1c[nH]c2ccccc12)C(=O)N[C@@H](CC(C)C)C(=O)N[C@H](C(=O)N[C@@H](CCC(N)=O)C(=O)N[C@H](C(=O)N[C@@H](CCCCN)C(=O)N[C@H](C(=O)N[C@H](C(=O)N[C@@H](CC(=O)O)C(=O)O)[C@@H](C)O)[C@@H](C)CC)[C@@H](C)O)[C@@H](C)CC (H-[Aib]DGSFSDEMNTILDNQAARDFINWLIQTKITD-OH) gave an EC50 [2] of 0.12 nM.

H-HGDGSFSSELATILDGKAARDFINWLIQTKITD-OH was tested, and the Activity (Mus musculus [3]) was “Active”, the Activity (Mus musculus [4]) was “Active” and the Activity (Mus musculus [5]) was “Active”. For the same compound, the Activity (Rattus norvegicus) was “Dose-dependent effect”, the Activity (Mus musculus [6]) was “Active” and the Activity (Mus musculus [7]) was “Active”.
